Measured values published in publication PMC11439681, “The identification of potent dual-target monopolar spindle 1 (MPS1) and histone deacetylase 8 (HDAC8) inhibitors through pharmacophore modeling, molecular docking, molecular dynamics simulations, and biological evaluation” (Frontiers in Pharmacology, 2024).

Legend:
Assay in all cases: In vitro selectivity assay
Assay type in all cases: biochemical
Details in all cases: selectivity panel
EPHA1 = target: T1, EPHA1 (Homo sapiens, UniProt P21709)
T1 construct: ICE Bioscience Inc. (assay service)
Procedure: (§1) The inhibitory effects of compound MPH-5 on a panel of 68 kinases and other histone deacetylases were evaluated to assess the selectivity profile of MPH-5. This experiment was conducted by ICE Bioscience Inc. (Beijing, China).

ERBB4 = ERBB4 (Homo sapiens, UniProt Q15303)
Procedure: as §1

PTK2 = target: T2, PTK2 (Homo sapiens, UniProt Q05397)
T2 construct: ICE Bioscience Inc. (contract assay provider)
Procedure: as §1

HCK = HCK (Homo sapiens, UniProt P08631)
Procedure: as §1

PIM1 = PIM1 (Homo sapiens, UniProt P11309)
Procedure: as §1

EPHB2 = target: T3, EPHB2 (Homo sapiens, UniProt P29323)
T3 construct: ICE Bioscience Inc. (assay service)
Procedure: as §1

ALK = target: T4, ALK (Homo sapiens, UniProt Q9UM73)
T4 construct: ICE Bioscience Inc. (assay service)
T4 sequence (Q9UM73 19-1620): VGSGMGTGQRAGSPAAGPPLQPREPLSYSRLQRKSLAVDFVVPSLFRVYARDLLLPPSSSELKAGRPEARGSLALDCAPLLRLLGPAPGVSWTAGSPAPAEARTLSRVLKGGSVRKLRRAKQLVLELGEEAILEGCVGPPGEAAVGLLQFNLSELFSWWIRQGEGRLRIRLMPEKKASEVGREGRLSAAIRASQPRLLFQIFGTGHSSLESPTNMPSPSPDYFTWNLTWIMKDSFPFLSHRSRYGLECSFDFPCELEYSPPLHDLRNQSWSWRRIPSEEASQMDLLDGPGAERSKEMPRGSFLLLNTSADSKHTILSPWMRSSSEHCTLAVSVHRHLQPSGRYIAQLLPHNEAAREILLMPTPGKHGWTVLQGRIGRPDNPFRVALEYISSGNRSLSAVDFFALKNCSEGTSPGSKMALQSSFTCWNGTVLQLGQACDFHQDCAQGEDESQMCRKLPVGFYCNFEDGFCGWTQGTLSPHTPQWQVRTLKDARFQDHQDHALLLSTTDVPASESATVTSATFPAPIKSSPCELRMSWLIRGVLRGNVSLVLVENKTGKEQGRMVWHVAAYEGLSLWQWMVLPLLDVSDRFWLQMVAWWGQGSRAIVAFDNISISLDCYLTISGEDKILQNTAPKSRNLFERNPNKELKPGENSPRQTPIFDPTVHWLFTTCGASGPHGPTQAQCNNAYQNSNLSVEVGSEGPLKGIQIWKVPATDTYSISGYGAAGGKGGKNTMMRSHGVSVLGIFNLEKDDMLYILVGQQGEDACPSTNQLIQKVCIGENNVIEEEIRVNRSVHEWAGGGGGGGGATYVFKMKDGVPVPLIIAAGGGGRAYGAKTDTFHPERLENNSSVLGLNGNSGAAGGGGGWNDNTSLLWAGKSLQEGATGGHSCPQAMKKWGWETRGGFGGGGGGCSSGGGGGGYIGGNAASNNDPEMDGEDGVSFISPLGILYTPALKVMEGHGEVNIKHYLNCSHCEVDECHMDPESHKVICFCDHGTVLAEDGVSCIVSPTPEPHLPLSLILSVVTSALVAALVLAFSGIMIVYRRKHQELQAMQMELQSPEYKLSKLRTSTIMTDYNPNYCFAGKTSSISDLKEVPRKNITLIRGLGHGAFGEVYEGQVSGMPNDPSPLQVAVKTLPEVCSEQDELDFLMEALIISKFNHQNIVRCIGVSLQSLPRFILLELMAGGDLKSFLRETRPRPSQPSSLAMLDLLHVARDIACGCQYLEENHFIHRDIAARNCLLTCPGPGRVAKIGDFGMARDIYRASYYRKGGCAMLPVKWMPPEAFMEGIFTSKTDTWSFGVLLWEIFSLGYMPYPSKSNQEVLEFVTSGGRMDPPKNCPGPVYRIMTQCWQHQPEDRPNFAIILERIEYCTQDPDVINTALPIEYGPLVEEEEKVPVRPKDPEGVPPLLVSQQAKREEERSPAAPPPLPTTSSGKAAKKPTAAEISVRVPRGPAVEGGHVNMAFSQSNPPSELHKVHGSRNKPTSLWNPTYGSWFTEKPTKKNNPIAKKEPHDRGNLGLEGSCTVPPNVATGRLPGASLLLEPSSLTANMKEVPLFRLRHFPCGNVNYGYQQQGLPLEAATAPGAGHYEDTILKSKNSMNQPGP
Procedure: as §1

YES1 = YES1 (Homo sapiens, UniProt P07947)
Procedure: as §1

BLK = target: T5, BLK (Homo sapiens, UniProt P51451)
T5 construct: ICE Bioscience Inc. (assay service)
Procedure: as §1

DDR1 = target: T6, DDR1 (Homo sapiens, UniProt Q08345)
T6 construct: ICE Bioscience Inc. (assay service)
Procedure: as §1

CDK2 = target: T7, CDK2 (Homo sapiens, UniProt P24941)
T7 construct: ICE Bioscience Inc. (assay service)
Procedure: as §1

MST1R = target: T8, MST1R (Homo sapiens, UniProt Q04912)
T8 construct: ICE Bioscience Inc. (contract assay provider)
Procedure: as §1

JAK2 = JAK2 (Homo sapiens, UniProt O60674)
Sequence of JAK2 (O60674 whole entry): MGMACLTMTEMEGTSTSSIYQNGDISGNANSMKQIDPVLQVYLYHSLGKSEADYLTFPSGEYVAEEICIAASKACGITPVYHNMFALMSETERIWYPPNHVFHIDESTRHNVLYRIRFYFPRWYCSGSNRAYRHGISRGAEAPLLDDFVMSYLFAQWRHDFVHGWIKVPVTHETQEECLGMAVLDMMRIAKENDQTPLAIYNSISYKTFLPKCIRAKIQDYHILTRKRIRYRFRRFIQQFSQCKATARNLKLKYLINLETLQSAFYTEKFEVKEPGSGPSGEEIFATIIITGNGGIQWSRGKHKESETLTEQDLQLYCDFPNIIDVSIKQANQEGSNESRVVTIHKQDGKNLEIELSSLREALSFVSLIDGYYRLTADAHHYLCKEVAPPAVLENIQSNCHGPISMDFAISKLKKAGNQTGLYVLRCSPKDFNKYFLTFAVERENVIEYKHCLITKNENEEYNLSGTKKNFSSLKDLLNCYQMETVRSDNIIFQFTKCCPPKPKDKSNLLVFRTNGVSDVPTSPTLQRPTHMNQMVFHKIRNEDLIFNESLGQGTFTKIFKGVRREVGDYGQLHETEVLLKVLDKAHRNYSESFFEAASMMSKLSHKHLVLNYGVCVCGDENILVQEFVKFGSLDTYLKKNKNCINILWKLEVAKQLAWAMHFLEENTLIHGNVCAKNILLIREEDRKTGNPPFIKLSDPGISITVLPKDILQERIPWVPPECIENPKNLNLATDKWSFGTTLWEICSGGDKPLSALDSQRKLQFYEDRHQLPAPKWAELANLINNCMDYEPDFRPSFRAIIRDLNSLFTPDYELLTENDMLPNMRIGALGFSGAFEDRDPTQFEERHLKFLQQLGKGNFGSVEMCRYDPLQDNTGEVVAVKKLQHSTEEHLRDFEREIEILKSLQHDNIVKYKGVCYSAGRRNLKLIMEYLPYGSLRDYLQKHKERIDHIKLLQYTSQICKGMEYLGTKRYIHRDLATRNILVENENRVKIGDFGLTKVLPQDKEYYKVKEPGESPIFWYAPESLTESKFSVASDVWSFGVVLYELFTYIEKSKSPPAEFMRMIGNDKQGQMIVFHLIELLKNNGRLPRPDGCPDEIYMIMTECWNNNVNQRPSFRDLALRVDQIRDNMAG
Procedure: as §1

TYRO3 = TYRO3 (Homo sapiens, UniProt Q06418)
Procedure: as §1

FGFR1 = FGFR1 (Homo sapiens, UniProt P11362)
Procedure: as §1

ABL1 = target: T9, ABL1 (Homo sapiens, UniProt P00519)
T9 construct: ICE Bioscience Inc. (assay service)
T9 sequence (P00519 whole entry): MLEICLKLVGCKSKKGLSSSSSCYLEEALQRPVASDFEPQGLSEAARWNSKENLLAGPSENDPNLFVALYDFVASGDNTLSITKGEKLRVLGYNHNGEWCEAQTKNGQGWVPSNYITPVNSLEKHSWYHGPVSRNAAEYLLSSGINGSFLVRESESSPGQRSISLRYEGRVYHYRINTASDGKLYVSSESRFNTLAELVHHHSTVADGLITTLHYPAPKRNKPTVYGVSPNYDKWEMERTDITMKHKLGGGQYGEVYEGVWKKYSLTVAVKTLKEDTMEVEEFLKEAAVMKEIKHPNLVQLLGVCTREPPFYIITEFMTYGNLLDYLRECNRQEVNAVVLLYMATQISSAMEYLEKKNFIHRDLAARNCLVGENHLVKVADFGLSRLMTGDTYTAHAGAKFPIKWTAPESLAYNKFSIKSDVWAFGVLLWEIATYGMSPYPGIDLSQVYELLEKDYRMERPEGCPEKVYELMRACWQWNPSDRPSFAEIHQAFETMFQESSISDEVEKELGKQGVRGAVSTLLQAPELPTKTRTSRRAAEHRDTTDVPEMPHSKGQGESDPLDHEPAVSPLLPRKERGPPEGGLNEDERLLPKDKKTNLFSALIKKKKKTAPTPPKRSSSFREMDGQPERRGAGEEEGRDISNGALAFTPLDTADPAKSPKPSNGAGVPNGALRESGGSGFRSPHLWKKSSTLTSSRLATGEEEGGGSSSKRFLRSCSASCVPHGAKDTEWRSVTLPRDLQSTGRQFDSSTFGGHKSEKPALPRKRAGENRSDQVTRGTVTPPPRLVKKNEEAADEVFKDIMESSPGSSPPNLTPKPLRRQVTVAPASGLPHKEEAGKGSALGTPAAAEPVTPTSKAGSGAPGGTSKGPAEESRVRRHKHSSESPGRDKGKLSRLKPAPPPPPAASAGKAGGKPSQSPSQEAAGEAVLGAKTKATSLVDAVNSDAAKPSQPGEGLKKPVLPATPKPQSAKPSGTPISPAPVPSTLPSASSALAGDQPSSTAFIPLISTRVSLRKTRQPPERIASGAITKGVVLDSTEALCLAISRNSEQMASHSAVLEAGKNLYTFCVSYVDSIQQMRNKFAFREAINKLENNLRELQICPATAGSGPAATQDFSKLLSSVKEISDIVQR
Procedure: as §1

EPHA4 = target: T10, EPHA4 (Homo sapiens, UniProt P54764)
T10 construct: ICE Bioscience Inc. (assay service)
Procedure: as §1

CSF1R = target: T11, CSF1R (Homo sapiens, UniProt P07333)
T11 construct: ICE Bioscience Inc. (assay service)
Procedure: as §1

LTK = target: T12, LTK (Homo sapiens, UniProt P29376)
T12 construct: ICE Bioscience Inc. (contract assay provider)
Procedure: as §1

EPHA7 = target: T13, EPHA7 (Homo sapiens, UniProt Q15375)
T13 construct: ICE Bioscience Inc. (assay service)
Procedure: as §1

FGFR2 = FGFR2 (Homo sapiens, UniProt P21802)
Procedure: as §1

EPHB1 = target: T14, EPHB1 (Homo sapiens, UniProt P54762)
T14 construct: ICE Bioscience Inc. (assay service)
Procedure: as §1

SYK = target: T15, SYK (Homo sapiens, UniProt P43405)
T15 construct: ICE Bioscience Inc. (contract assay provider)
Procedure: as §1

MET = target: T16, MET (Homo sapiens, UniProt P08581)
T16 construct: ICE Bioscience Inc. (contract assay provider)
Procedure: as §1

FGR = FGR (Homo sapiens, UniProt P09769)
Procedure: as §1

HDAC6 = target: T17, HDAC6 (Homo sapiens, UniProt Q9UBN7)
T17 construct: ICE Bioscience Inc. (Beijing, China), the contract lab that ran the assay
Procedure: as §1

FGFR4 = FGFR4 (Homo sapiens, UniProt P22455)
Procedure: as §1

KDR = target: T18, KDR (Homo sapiens, UniProt P35968)
T18 construct: ICE Bioscience Inc. (contract assay provider)
Procedure: as §1

PDGFRA = target: T19, PDGFRA (Homo sapiens, UniProt P16234)
T19 construct: ICE Bioscience Inc. (contract assay provider)
Procedure: as §1

FYN = FYN (Homo sapiens, UniProt P06241)
Procedure: as §1

NTRK3 = target: T20, NTRK3 (Homo sapiens, UniProt Q16288)
T20 construct: ICE Bioscience Inc. (contract assay provider)
T20 sequence (Q16288 32-839): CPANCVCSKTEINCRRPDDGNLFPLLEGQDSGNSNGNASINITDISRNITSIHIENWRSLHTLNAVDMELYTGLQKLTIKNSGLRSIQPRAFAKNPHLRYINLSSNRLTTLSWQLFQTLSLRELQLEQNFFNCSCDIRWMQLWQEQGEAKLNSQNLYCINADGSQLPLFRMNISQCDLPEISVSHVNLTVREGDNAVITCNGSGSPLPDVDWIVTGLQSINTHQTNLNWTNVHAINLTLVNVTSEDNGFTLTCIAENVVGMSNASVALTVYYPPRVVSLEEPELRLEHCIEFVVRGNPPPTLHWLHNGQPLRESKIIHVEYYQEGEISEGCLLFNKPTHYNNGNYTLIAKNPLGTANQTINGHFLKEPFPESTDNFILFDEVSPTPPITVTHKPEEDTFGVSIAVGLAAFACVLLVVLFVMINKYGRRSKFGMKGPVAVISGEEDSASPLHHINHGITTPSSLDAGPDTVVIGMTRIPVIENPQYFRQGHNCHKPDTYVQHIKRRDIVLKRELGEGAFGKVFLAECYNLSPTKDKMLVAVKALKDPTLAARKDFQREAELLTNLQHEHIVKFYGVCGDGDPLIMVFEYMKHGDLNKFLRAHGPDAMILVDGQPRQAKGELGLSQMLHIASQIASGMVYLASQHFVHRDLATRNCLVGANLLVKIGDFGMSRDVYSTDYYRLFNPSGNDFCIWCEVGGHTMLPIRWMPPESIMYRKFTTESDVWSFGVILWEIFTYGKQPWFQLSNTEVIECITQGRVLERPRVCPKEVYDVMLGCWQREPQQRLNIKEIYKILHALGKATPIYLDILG
Procedure: as §1

MERTK = target: T21, MERTK (Homo sapiens, UniProt Q12866)
T21 construct: ICE Bioscience Inc. (contract assay provider)
Procedure: as §1

KIT = target: T22, KIT (Homo sapiens, UniProt P10721)
T22 construct: ICE Bioscience Inc. (contract assay provider)
Procedure: as §1

FES = FES (Homo sapiens, UniProt P07332)
Procedure: as §1

NTRK1 = target: T23, NTRK1 (Homo sapiens, UniProt P04629)
T23 construct: ICE Bioscience Inc. (contract assay provider)
Procedure: as §1

IGF1R = IGF1R (Homo sapiens, UniProt P08069)
Procedure: as §1

INSR = INSR (Homo sapiens, UniProt P06213)
Procedure: as §1

PTK6 = target: T24, PTK6 (Homo sapiens, UniProt Q13882)
T24 construct: ICE Bioscience Inc. (contract assay provider)
T24 sequence (Q13882 whole entry): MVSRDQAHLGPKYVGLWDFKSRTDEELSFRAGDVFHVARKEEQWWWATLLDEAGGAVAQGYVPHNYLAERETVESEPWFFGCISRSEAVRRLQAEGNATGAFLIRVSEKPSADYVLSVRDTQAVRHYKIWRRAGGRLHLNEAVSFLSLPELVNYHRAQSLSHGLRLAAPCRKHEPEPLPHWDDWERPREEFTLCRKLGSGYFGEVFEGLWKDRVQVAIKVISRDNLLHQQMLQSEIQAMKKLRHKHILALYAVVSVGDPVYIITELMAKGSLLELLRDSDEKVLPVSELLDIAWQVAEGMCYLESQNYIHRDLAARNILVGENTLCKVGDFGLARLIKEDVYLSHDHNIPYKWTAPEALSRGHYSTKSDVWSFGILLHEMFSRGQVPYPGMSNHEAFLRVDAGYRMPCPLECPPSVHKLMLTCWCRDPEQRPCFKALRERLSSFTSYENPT
Procedure: as §1

INSRR = INSRR (Homo sapiens, UniProt P14616)
Procedure: as §1

ITK = ITK (Homo sapiens, UniProt Q08881)
Procedure: as §1

ZAK = ZAK (Homo sapiens, UniProt Q9NYL2)
Procedure: as §1

JAK3 = target: T25, JAK3 (Homo sapiens, UniProt P52333)
T25 construct: ICE Bioscience Inc. (contract assay provider)
Procedure: as §1

EPHA3 = target: T26, EPHA3 (Homo sapiens, UniProt P29320)
T26 construct: ICE Bioscience Inc. (assay service)
Procedure: as §1

Measured: IC50

Cn1cc(-c2cc3cnc(Nc4ccc(-c5cncn5/C=C/C(=O)NO)cc4Cl)cc3n2C(=O)OC(C)(C)C)cn1 [MPH-5]
> 10 µM: all assays above
